Test results taken from patent publication US8017350B2, “Glimepiride- and insulin-induced glycosylphosphatidylinositol-specific phospholipase C regulation” (Sanofi-Aventis Deutschland GmbH, priority 2004, dated 2011).

How the values were obtained:
rat adipocyte GPI-PLC = experiment: adipocyte GPI-PLC assay (plasma membranes or hc/lcDIGs, AChE substrate, TX-114 partitioning); format: biochemical; conditions: at the highest concentration tested, only
Procedure: (§1) GPI-PLD (rat serum) was assayed according to “Hari et al. (1997) Biochim. Biophys. Acta 1355: 293-302” by incubation with 10 μl of human placental aP solution (100 U/ml in 10 mM Hepes/NaOH, pH 7.0, 150 mM NaCl) in 100 μl of 200 mM Tris/maleate (pH 7.0) and 1% Nonidet P-40 for 10 min at 37° C. and subsequent termination of the reaction by addition of 0.4 ml of ice-cold stop buffer (10 mM Hepes/NaOH, pH 7.0, 150 mM NaCl, 0.1 mM MgCl2 and 0.01 mM zinc acetate). GPI-PLC (T. brucei) was assayed as described in “Mensa-Wilmot et al. (1995) Methods Enzymol. 250: 641-655” by incubation with 5 μl of human placental aP solution (see above) in 50 μl of 50 mM Tris/HCl (pH 8.0), 0.25% Nonidet P-40 and 5 mM EDTA for 30 min at 37° C. and subsequent termination of the reaction by addition of 0.45 ml of stop buffer. PI-PLC (B. cereus) and adipocyte GPI-PLC (5-25 μg plasma membranes or hc/lcDIGs) were assayed by incubation with 10 μl of bovine erythrocyte acetylcholinesterase (AChE) solution (12 U/ml in 10 mM Tris/HCl, pH 7.4, 144 mM NaCl, 0.1% TX-100) in 100 μl of 20 mM Hepes/KOH (pH 7.8), 144 mM NaCl, 0.1% TX-100, 0.2 mM MgCl2 for 1 h at 25° C. and subsequent termination by adding 5 μl of glacial acetic acid and then 0.4 ml of 10 mM Tris/HCl (pH 7.4), 144 mM NaCl. Each reaction mixture was subjected to TX-114 partitioning (see below).
(§2) Pelleted hc/lcDIGs (10-50 μg protein) or (G)PI-PLC reaction mixtures (0.5 ml) were separated into amphiphilic and hydrophilic proteins using partitioning between TX-114-enriched and depleted phases according to “Bordier, C., (1981) J. Biol, Chem. […]” by suspending in 1 ml of ice-cold TX-114 (1%), 25 mM Tris/HCl (pH 7.4), 144 mM NaCl or mixing with 0.5 ml of ice-cold TX-114 (2%), respectively. After incubation for 1 h on ice, the mixture was layered onto a cushion of 0.4 ml of 0.25 M sucrose and 25 mM Tris/HCl (pH 7.4) on ice. Phase separation was induced by warming up to 37° C. and subsequent centrifugation (10,000×g, 1 min). After re-extraction of the lower TX-114-enriched phase, aliquots of the pooled upper TX-114-depleted phase were measured for 5′-Nuc, aP and AChE activity or precipitated (15 polyethylene glycol 4000) for SDS-PAGE analysis.
Table 1: GPI-PLC of hcDIGs from rat adipocytes, GPI-PLC from T. brucei and PI-PLC from B. cereus were incubated with solubilized and partially purified bovine erythrocyte AChE or human placental aP in the absence or presence of increasing concentrations (0.05 μM-1 mM) of the inhibitors indicated under appropriate conditions (see Materials and Methods). Cleavage rate was calculated from the amount of hydrophilic AChE and aP activity recovered with the TX-114-depleted phase upon TX-114 partitioning. […]

GPI-PLC (T. brucei) = molecular target: T1, GPI-PLC (T. brucei) (Trypanosoma brucei brucei, UniProt P09194); experiment: GPI-PLC (T. brucei) assay, human placental aP substrate, TX-114 partitioning; format: biochemical
T1 construct: purchased Oxford Glycosystems (Oxford, UK)
T1 sequence (P09194 whole entry): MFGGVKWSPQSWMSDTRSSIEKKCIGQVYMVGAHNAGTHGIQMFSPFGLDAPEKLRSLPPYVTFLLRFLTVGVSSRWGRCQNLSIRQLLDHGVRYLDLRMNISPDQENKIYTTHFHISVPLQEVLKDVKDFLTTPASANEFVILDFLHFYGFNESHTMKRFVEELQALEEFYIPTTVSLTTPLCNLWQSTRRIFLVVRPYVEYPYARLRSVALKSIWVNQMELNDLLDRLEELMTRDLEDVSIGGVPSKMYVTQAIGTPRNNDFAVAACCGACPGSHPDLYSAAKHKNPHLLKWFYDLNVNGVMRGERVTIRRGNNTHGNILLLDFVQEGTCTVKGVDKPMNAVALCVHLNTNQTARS
Procedure: as §1, §2
(§3) Table 1: GPI-PLC of hcDIGs from rat adipocytes, GPI-PLC from T. brucei and PI-PLC from B. cereus were incubated with solubilized and partially purified bovine erythrocyte AChE or human placental aP in the absence or presence of increasing concentrations (0.05 μM-1 mM) of the inhibitors indicated under appropriate conditions (see Materials and Methods). Cleavage rate was calculated from the amount of hydrophilic AChE and aP activity recovered with the TX-114-depleted phase upon TX-114 partitioning. Means+SD from at least 3 independent incubations with partitioning/enzyme assays in quadruplicate are given. n.a., not applicable.
(§4) Purified (G)PI-PLC/D from B. cereus, rat serum and T. brucei as well as total plasma membranes (PM) and hc/lcDIGs prepared from isolated rat adipocytes were incubated (10 min, 30° C.) with increasing concentrations of GPI-2350 and then assayed for amphiphilic-to-hydrophilic conversion of AChE and aP by TX-114 partitioning (see Materials and Methods). The lipolytic activity was calculated as % of the control reaction in the absence of GPI-2350 (set at 100%). Means+SD of at least 4 independent incubations with AChE and aP activity measurements in triplicate each are given.

PI-PLC (B. cereus) = molecular target: T2, PI-PLC (B. cereus) (Bacillus cereus, UniProt P14262); experiment: PI-PLC (B. cereus) assay, AChE substrate, TX-114 partitioning; format: biochemical; conditions: read-out: inhibition % at 1 mM
T2 construct: purchased SigmalAldrich (Deisenhofen, Germany)
T2 sequence (P14262 32-329 limits assumed): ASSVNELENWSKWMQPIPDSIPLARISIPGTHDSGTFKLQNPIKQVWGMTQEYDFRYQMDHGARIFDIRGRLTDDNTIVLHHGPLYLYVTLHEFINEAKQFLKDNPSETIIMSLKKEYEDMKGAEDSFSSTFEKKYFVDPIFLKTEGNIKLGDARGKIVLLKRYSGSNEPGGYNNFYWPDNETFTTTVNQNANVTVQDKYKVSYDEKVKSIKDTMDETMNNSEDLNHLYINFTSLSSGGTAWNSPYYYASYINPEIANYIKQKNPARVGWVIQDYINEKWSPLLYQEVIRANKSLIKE
Procedure: as §1, §2, §3, §4

[1] = tested on: 5′-Nuc in isolated rat adipocytes; experiment: 5′-Nuc translocation to lcDIGs induced by insulin-mimetic stimuli; format: cell-based
Procedure: (§5) Table 3: Isolated rat adipocytes were incubated in the presence of methyl-β-cyclodextrin (m-β-CD, 10 mM, 50 min), CBDP (300 μM, electroporation, followed by washing and subsequent incubation for 30 min), PIG41 (10 μM, 15 min), sodium orthovanadate (1 mM, 15 min), trypsin (10 μg/ml, 15 min followed by treatment with 0.5 M NaCl and subsequent washing) and N-ethylmaleimide (1 mM, 5 min followed by addition of DTT). After addition of GPI-2350 (50 μM final conc.) to one half of the adipocyte suspension and further incubation (60 min, 37° C.), portions of the cells were assayed for 5′-Nuc activity in the isolated IcDIGs. The increase in 5′-Nuc during the basal incubation was set at 100 arb. units. Other portions of the cells (after 15 min incubation) were assayed for glucose transport which was set at 100 arb. units for the basal incubation. Means+SD of at least 3 independent cell incubations with activity measurements in triplicate each are given.

isolated rat adipocytes = experiment: glucose transport assay (2-deoxy-D-[3H]glucose); format: cell-based
Procedure: (§6) Glucose transport was determined as described in “Müller, G. et al., (1994) J. Cell Biol. 126: 1267-1276” by incubation of 10,000-20,000 washed adipocytes with 2-deoxy-D[2,6-^3H]glucose at 50 μM final conc. (0.33 μCi/ml) in 50-μl portions for 20 min at 37° C. in the absence or presence of 20 μM cytochalasin B.
as §5
(§7) FIG. 8: Effect of GPI-2350 on the glimepiride/insulin-induced metabolic activity. Isolated rat adipocytes were treated (5 min, 37° C.) without or with GPI-2350 (Panel A, 50 μM; Panel B, increasing conc.; Panel C, 5 μM, 50 μM) and then incubated (15 min, 37° C.) in the absence or presence of insulin (Ins, 10 nM) or glimepiride (Gli, 20 μM or increasing conc.) as indicated. The adipocytes were then assayed for glucose transport and isoproterenol-induced lipolysis. The activity is given relative to the absence of GPI-2350 in the control reaction (Panels A, basal) or in the insulin- and glimepiride-stimulated state (Panels B and C, set at 100). Means+SD of at least 5 independent cell incubations with activity measurements in triplicate each are given.

[2] = tested on: patients with type 2 diabetes; conditions: cited from earlier work
[3] = tested on: glucose transport, rat adipocytes; experiment: Glucose transport in rat adipocytes; format: cell-based; conditions: for Glucose Transport: basal set at 100; for glucose transport (in words): insulin-mimetic stimuli
Procedure: as §6
Subsequently, we studied whether the differential effects of GPI-PLC inhibition on IRS-1 tyrosine phosphorylation in response to insulin and glimepiride is reflected in their metabolic activity in insulin target cells. For this, isolated rat adipocytes were pretreated with GPI-2350 prior to challenge with either stimulus, and then assayed for glucose transport and isoproterenol-induced lipolysis (FIG. 8). […] These differential effects of GPI-PLC inhibition were confirmed by analysis of the effect of GPI-2350 on the inhibition of isoproterenol-induced lipolysis by glimepiride and insulin when measured as release of NBD-FA instead of glycerol from rat adipocytes prelabeled with this fluorescent fatty acid derivative (FIG. 9).
as §5, §7

5'-Nuc, rat adipocytes = experiment: 5'-Nuc translocation to lcDIGs induced by insulin-mimetic stimuli; format: cell-based; conditions: for Increase in 5′-Nuc at lcDIGs: basal set at 100
Text: Finally, the involvement was investigated of the GPI-PLC in signaling pathways of insulin-mimetic stimuli other than glimepiride, which are either dependent on or independent of the redistribution of GPI-proteins within DIGs. […] This is in agreement with their modes of action, the well-known inhibition of insulin receptor and IRS-1 dephosphorylation by the tyrosine phosphatase inhibitor, vanadate and the direct stimulation of pp59^Lyn and IRS-1 tyrosine phosphorylation by the CBDP.
as §5

[4] = +GPI-2350 (50 μM final conc., 60 min)
[5] = +GPI-2350 (50 μM final conc., 15 min)

## CCCCCCCCCCCCP(=O)(O)O[C@H]1[C@H](O)[C@@H](O)[C@H](O)[C@@H](O)[C@@H]1F [GPI-1793, 2-deoxy-2-fluoro-scyllo-inositol-1-O-dodecyl-phosphonic acid]
Rat adipocyte GPI-PLC
  effect on the adipocyte GPI-PLC: moderate

## CCCCCCCCCCCCP(=O)(OC)O[C@@H]1[C@H](O)[C@H](O)[C@@H](O)[C@H](O)[C@H]1O (stereo partly shown) [GPI-2349, myo-inositol-1-O-dodecylphosphonic acid methylester]
Rat adipocyte GPI-PLC
  effect on the adipocyte GPI-PLC: very moderate
GPI-PLC (T. brucei); IC50, Table 1, inhibitor 0.05 μM-1 mM
  IC50: 310 to 390 µM
GPI-PLC (T. brucei); read-out: inhibition % at 1 mM
  inhibition at 1000 µM: 66%
PI-PLC (B. cereus)
  inhibition at 1000 µM: 24%

## CCN1C(=O)C=CC1=O [N-ethylmaleimide]
[1]; [4]
  Increase in 5′-Nuc at lcDIGs (basal set at 100 arb. units): 319 + 52 arb. units
[1]; −GPI-2350
  Increase in 5′-Nuc at lcDIGs (basal set at 100 arb. units): 292 + 60 arb. units
Isolated rat adipocytes; [5]
  Glucose Transport (basal set at 100 arb. units): 288 + 40 arb. units
Isolated rat adipocytes; −GPI-2350
  Glucose Transport (basal set at 100 arb. units): 308 + 33 arb. units

## CCC1=C(C)CN(C(=O)NCCc2ccc(S(=O)(=O)NC(=O)N[C@H]3CC[C@H](C)CC3)cc2)C1=O [glimepiride]
[2]; 14-week study
  effects vs. gliclazide: no differences between their effects
[2]; first few weeks of treatment
  rate of blood glucose reduction vs. glipizide: more rapidly than glipizide
[2]; human, in vivo
  effects on cardiovascular variables: fewer and less severe effects on cardiovascular variables than glibenclamide
  pharmacokinetics in elderly, renal or liver disease: mainly unaltered
[2]; secondary sulphonylurea failure, fasting glucose target ≦7.8 mmol/L
  efficacy of glimepiride plus insulin: as effective as insulin plus placebo

## [Na+].[Na+].[Na+].[O]=[V]([O-])([O-])[O-] [sodium orthovanadate]
[3]; +GPI-2350 (50 μM)
  Glucose Transport: 673 + 45 arb. units
[3]
  glucose transport (in words): stimulated glucose transport
[3]; −GPI-2350
  Glucose Transport: 707 + 51 arb. units
[1]; [4]
  Increase in 5′-Nuc at lcDIGs (basal set at 100 arb. units): 105 + 34 arb. units
[1]; −GPI-2350
  Increase in 5′-Nuc at lcDIGs (basal set at 100 arb. units): 93 + 38 arb. units
5'-Nuc, rat adipocytes
  5'-Nuc at lcDIGs (in words): without concomitant induction of 5′-Nuc translocation to IcDIGs
5'-Nuc, rat adipocytes; +GPI-2350 (50 μM)
  Increase in 5′-Nuc at lcDIGs: 105 + 34 arb. units
5'-Nuc, rat adipocytes; −GPI-2350
  Increase in 5′-Nuc at lcDIGs: 93 + 38 arb. units
Isolated rat adipocytes; [5]
  Glucose Transport (basal set at 100 arb. units): 673 + 45 arb. units
Isolated rat adipocytes; −GPI-2350
  Glucose Transport (basal set at 100 arb. units): 707 + 51 arb. units

## methyl-β-cyclodextrin [m-β-CD] [listing 1 of 2 here]
[1]; [4]
  Increase in 5′-Nuc at lcDIGs (basal set at 100 arb. units): 539 + 104 arb. units
[1]; −GPI-2350
  Increase in 5′-Nuc at lcDIGs (basal set at 100 arb. units): 595 + 128 arb. units
Isolated rat adipocytes; [5]
  Glucose Transport (basal set at 100 arb. units): 249 + 18 arb. units
Isolated rat adipocytes; −GPI-2350
  Glucose Transport (basal set at 100 arb. units): 289 + 13 arb. units

## methyl-β-cyclodextrin [m-β-CD] [listing 2 of 2 here]
[3]; +GPI-2350 (50 μM)
  Glucose Transport: 249 + 18 arb. units
[3]
  glucose transport (in words): glucose transport activation
[3]; −GPI-2350
  Glucose Transport: 289 + 13 arb. units
5'-Nuc, rat adipocytes
  5'-Nuc at lcDIGs (in words): pronounced increases
5'-Nuc, rat adipocytes; +GPI-2350 (50 μM)
  Increase in 5′-Nuc at lcDIGs: 539 + 104 arb. units
5'-Nuc, rat adipocytes; −GPI-2350
  Increase in 5′-Nuc at lcDIGs: 595 + 128 arb. units
